One data set deals with T1, G9a (Homo sapiens, UniProt Q96KQ7).
T1 construct: purchased Structural Genomics Consortium (SGC Toronto) in-house methyltransferase panel
T1 sequence (Q96KQ7 1-1210): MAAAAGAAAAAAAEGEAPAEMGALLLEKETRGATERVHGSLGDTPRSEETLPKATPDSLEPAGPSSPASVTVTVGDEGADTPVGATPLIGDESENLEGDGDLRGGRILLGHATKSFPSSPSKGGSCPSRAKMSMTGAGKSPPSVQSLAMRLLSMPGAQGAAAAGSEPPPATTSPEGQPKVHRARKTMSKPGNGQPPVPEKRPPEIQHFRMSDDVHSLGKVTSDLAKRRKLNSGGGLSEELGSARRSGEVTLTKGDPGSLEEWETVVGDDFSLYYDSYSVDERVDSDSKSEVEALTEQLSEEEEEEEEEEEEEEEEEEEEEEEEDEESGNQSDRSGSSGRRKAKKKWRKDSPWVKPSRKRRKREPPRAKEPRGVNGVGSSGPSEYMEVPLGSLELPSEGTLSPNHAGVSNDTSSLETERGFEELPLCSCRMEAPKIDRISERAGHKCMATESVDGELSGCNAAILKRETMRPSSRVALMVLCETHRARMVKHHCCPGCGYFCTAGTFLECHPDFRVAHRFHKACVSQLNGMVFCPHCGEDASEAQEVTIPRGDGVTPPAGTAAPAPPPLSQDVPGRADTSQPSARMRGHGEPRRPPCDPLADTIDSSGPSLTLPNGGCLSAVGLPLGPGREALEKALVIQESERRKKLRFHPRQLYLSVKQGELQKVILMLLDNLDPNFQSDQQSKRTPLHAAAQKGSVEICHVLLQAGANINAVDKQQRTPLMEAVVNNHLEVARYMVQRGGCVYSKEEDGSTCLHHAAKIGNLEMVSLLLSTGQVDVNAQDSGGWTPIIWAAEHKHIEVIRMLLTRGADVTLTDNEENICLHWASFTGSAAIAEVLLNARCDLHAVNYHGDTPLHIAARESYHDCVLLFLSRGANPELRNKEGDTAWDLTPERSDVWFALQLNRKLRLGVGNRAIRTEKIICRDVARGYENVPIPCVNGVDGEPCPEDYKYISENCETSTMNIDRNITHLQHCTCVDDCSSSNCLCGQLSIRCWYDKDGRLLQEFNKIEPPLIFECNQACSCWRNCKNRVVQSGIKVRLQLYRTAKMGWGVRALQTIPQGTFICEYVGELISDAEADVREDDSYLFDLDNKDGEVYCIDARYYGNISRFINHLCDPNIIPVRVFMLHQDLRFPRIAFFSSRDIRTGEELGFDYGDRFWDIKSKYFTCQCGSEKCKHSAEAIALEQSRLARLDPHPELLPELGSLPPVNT
Briefly: Methyltransferase selectivity assay (SPA). It is filed as biochemical. How it is done: (§1) Selectivity against methyltransferases were determined as described previously. Details of the assays are described in the supplementary methods.
(§2) Methyltransferase selectivity assay1
(§3) The effect of chemical probes and negative controls on the methyltransferase activities of protein, DNA and RNA methyltransferases was tested by radiometric assays using 3H-SAM. For proteins such as MLL1 trimeric, MLL3 pentameric, EZH1 (PRC2) pentameric, and EZH2 (PRC2) trimeric complexes, as well as G9a, GLP, SUV39H1, SUV39H2, SUV420H1, SUV420H2, SETD2, SETD8, SETDB1, SETD7, PRMT1, PRMT3, PRMT4, PRMT5/ MEP50 complex, PRMT6, PRMT7, PRMT8, PRMT9, PRDM9, SMYD2, SMYD3, DNMT1, and BCDIN3D the incorporation of a tritium-labeled methyl group into biotinylated substrate was monitored using scintillation proximity assay (SPA). Briefly, a 10 µL reaction containing 3H-SAM and substrate at concentrations close to the apparent Km values for each enzyme (balanced conditions) was prepared. The reactions were quenched with 10 µL of 7.5 M guanidine hydrochloride; 180 µL of 20 mM Tris buffer (pH 8.0) were added, and the mixture was transferred to a 96-well FlashPlate and incubated for 1 h. The counts per minute (CPM) was measured on a TopCount plate reader. The CPM in the absence of compound or enzyme was defined as 100% activity and background (0%), respectively, for each dataset. For DNMT1, the double-stranded DNA substrate was prepared by annealing two complementary strands (biotinylated forward strand: B-[…] and reverse strand:
(§4) ) that were synthesized by Eurofins MWG Operon
(§5) For proteins which were tested with nucleosome as substrate such as DOT1L, NSD1, NSD2, NSD3, and ASH1L, or unbiotinylated Poly(2′-deoxyinosinic-2′-deoxycytidylic acid) (Cat# 81349-500UG, Sigma Aldrich) such as DNMT3A/3L, and DNMT3B/3L, a filter-based assay was used. In this assay, a trichloroacetic acid (TCA) protein precipitation protocol was employed. A 10 µL reaction mixture was incubated at 23°C for 1 h, followed by addition of 50 µL of 10% TCA. The mixture was transferred to filter plates (Millipore, Billerica, MA, USA) that were centrifuged at 2000 rpm (Allegra X-15R; Beckman Coulter, Brea, CA, USA) for 2 min. Samples were washed twice with 10% TCA and once with ethanol (180 µL), and centrifuged. After drying, 100 µL MicroScint-O (Perkin Elmer) was added to each well and the plates were centrifuged to remove the liquid. A 70 µL volume of MicroScint-O was added and the CPM was measured with a TopCount plate reader.

For another data set, the target named is T2, BCDIN3D (Homo sapiens, UniProt Q7Z5W3).
T2 construct: purchased Structural Genomics Consortium (SGC Toronto) in-house methyltransferase panel
T2 sequence (Q7Z5W3 1-292): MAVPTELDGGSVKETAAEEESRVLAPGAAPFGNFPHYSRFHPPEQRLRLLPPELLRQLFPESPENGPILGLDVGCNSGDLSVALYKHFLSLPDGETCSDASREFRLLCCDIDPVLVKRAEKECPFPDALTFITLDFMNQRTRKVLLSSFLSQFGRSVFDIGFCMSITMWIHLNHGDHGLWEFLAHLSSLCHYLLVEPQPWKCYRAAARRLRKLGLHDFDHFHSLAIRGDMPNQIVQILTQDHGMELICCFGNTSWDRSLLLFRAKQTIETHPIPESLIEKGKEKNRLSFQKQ
Briefly: Methyltransferase selectivity assay (SPA). Format: biochemical. The procedure: as §1, §2, §3, §4, §5

A further data set relates to HEK293T cells. Nature of the data set: Cell growth, IncuCyte ZOOM cell number. It is filed as cell-based. The conditions noted are these: for HEK293T cell growth (in words): 24 h of treatment; for Cell# - toxocity data, % Control: HEK293T-1day, Figure 6c, technical replicates.
Where [1] appears, read: 10µM compound, Exp1, Exp2, 10 µM.
Where [2] appears, read: 1µM compound, Exp1, Exp2, read-out: Activity %.
The mark [3] stands for this setting: 10µM compound, Exp1, Exp2, read-out: Activity %.

Structures are written as SMILES. Several values for one entry are separate records, joined by “and”; a condition that tells them apart may be missing. Equal entries are not always repeated. Where two headings read alike, the source gives them in different places.

For the compound `COc1cc(OC)cc(-c2noc(N3CCN(C)C4(CCN(c5ccccc5)CC4)C3)n2)c1` [MRK-740 -NC], the activity at 1 µM on G9a (1µM compound, Exp1, Exp2) was determined as 101%; on BCDIN3D (1µM compound, Exp1, Exp2) it was 103%. For the same compound, the Activity % amounted to 100% at G9a (1µM compound, Exp1, Exp2, 1 µM); 93% at G9a (setting [1]); 101% at BCDIN3D (1µM compound, Exp1, Exp2, 1 µM); 94% on BCDIN3D (setting [1]). Further, the activity at 10 µM on G9a (10µM compound, Exp1, Exp2) came to 95%; on BCDIN3D (10µM compound, Exp1, Exp2) it was 100%.

Turning to `COc1cc(OC)cc(-c2noc(N3CCN(C)C4(CCN(c5ccccc5)CC4)C3)n2)c1` [MRK-740-NC], in the data set with HEK293T cells (3 µM), the “HEK293T cell growth (in words)” value was “neither compound affected HEK293T cell growth”. Further, the “Cell# - toxocity data, % Control” value is 113.12 % Control and 118.767 % Control and 86.3705 % Control in the data set on HEK293T cells (1 µM); 125.539 % Control and 114.582 % Control and 84.3363 % Control in the data set with HEK293T cells (3 µM); 86.195 % Control and 121.075 % Control and 87.3323 % Control with HEK293T cells (5 µM); 76.5766 % Control and 74.1915 % Control and 52.2642 % Control with HEK293T cells (10 µM).

As to `COc1cc(OC)cc(-c2noc(N3CCN(C)C4(CCN(c5ccnc(C)c5)CC4)C3)n2)c1` [MRK-740], the “HEK293T cell growth (in words)” value in the data set on HEK293T cells (3 µM) was “neither compound affected HEK293T cell growth”. The “Cell# - toxocity data, % Control” value was 89.1325 % Control and 119.658 % Control and 130.764 % Control in the data set on HEK293T cells (1 µM); 81.2039 % Control and 117.832 % Control and 120.808 % Control in the data set with HEK293T cells (3 µM); 86.208 % Control and 117.65 % Control and 129.14 % Control in the data set on HEK293T cells (5 µM); 89.6654 % Control and 116.798 % Control and 107.394 % Control in the data set on HEK293T cells (10 µM). Further, the Activity % on G9a (1µM compound, Exp1, Exp2, 1 µM) is 89%; at BCDIN3D (1µM compound, Exp1, Exp2, 1 µM), 100%; on BCDIN3D (setting [1]), 95%. For the same compound, the values for the activity at 1 µM on G9a (setting [2]) and on BCDIN3D (setting [2]) were 93% and 101%, respectively. Also, the activity at 10 µM was found to be 94% on G9a (setting [3]) and 104% at BCDIN3D (setting [3]).

(Values after paper PMC6917776, “Discovery of a chemical probe for PRDM9” (Nature Communications, 2019).)
